Source: ChEMBL document CHEMBL3045001, “Synthesis and evaluation of analgesic, anti-inflammatory, and anticancer activities of new pyrazole-3(5)-carboxylic acid derivatives” (Med Chem Res, 2013)

What was measured:
[1] = test system: HeLa; experiment: Anticancer activity against Homo sapiens (human) HeLa cells assessed as inhibition of cell viability by MTT assay; assay type: functional, cell-based
[2] = test system: MDA-MB-231; experiment: Anticancer activity against Homo sapiens (human) estrogen-independent MDA-MB-231 cells assessed as cell viability at 50 uM after 48 hr by MTT assay (reference value: 100 +/-3.71%); assay type: functional; details: MDA-MB-231, 48 h, read-out: Activity
[3] = test system: HeLa; experiment: Anticancer activity against Homo sapiens (human) HeLa cells assessed as cell viability at 50 uM after 24 hr by MTT assay (reference value: 100 +/-4.13%); assay type: functional; details: read-out: Activity
[4] = test system: Mus musculus; experiment: Anti-inflammatory activity in carrageenan-induced Mus musculus Swiss albino (mouse) paw edema model assessed as inhibition of paw edema at 100 mg/kg, sc administered 30 min prior to carrageenan injection measured after 360 min; assay type: functional; details: route subcutaneous
[5] = species: Mus musculus; experiment: Acute toxicity against Mus musculus Swiss albino (mouse) assessed as morbidity after 48 hr; assay type: organism-based; details: in vivo
[6] = test system: Mus musculus; experiment: Anti-inflammatory activity in carrageenan-induced Mus musculus Swiss albino (mouse) paw edema model assessed as paw swelling at 100 mg/kg, sc administered 30 min prior to carrageenan injection measured after 90 min (reference value: 38.0 +/-2.0 x10'-2 mm); assay type: functional; details: route subcutaneous
[7] = test system: MCF7; experiment: Anticancer activity against Homo sapiens (human) MCF7 cells assessed as cell viability at 50 uM after 24 hr by MTT assay (reference value: 100 +/-2.74%); assay type: functional; details: MCF7, 24 h, read-out: Activity
[8] = test system: MDA-MB-231; experiment: Anticancer activity against Homo sapiens (human) estrogen-independent MDA-MB-231 cells assessed as cell viability at 50 uM after 24 hr by MTT assay (reference value: 100 +/-7.08%); assay type: functional; details: MDA-MB-231, 24 h, read-out: Activity
[9] = test system: Mus musculus; experiment: Anti-inflammatory activity in carrageenan-induced Mus musculus Swiss albino (mouse) paw edema model assessed as paw swelling at 100 mg/kg, sc administered 30 min prior to carrageenan injection measured after 180 min (reference value: 51.0 +/-3.0 x10'-2 mm); assay type: functional; details: route subcutaneous
[10] = test system: HL-60; experiment: Anticancer activity against Homo sapiens (human) HL60 cells assessed as cell viability at 50 uM after 24 hr by MTT assay (reference value: 100 +/-3.55%); assay type: functional; details: HL-60, 24 h, read-out: Activity
[11] = test system: Mus musculus; experiment: Anti-inflammatory activity in carrageenan-induced Mus musculus Swiss albino (mouse) paw edema model assessed as inhibition of paw edema at 100 mg/kg, sc administered 30 min prior to carrageenan injection measured after 90 min; assay type: functional; details: route subcutaneous
[12] = test system: Mus musculus; experiment: Anti-inflammatory activity in carrageenan-induced Mus musculus Swiss albino (mouse) paw edema model assessed as paw swelling at 100 mg/kg, sc administered 30 min prior to carrageenan injection measured after 360 min (reference value: 77.0 +/-3.0 x10'-2 mm); assay type: functional; details: route subcutaneous
[13] = species: Mus musculus; experiment: Acute toxicity against Mus musculus Swiss albino (mouse) assessed as mortality after 48 hr; assay type: organism-based; details: in vivo
[14] = test system: Mus musculus; experiment: Anti-inflammatory activity in carrageenan-induced Mus musculus Swiss albino (mouse) paw edema model assessed as inhibition of paw edema at 100 mg/kg, sc administered 30 min prior to carrageenan injection measured after 270 min; assay type: functional; details: route subcutaneous
[15] = test system: Raji; experiment: Anticancer activity against Homo sapiens (human) Raji cells assessed as cell viability at 50 uM after 48 hr by MTT assay (reference value: 100 +/-4.26%); assay type: functional; details: read-out: Activity
[16] = test system: Mus musculus; experiment: Anti-inflammatory activity in carrageenan-induced Mus musculus Swiss albino (mouse) paw edema model assessed as inhibition of paw edema at 100 mg/kg, sc administered 30 min prior to carrageenan injection measured after 180 min; assay type: functional; details: route subcutaneous
[17] = test system: Mus musculus; experiment: Analgesic activity in Mus musculus Swiss albino (mouse) assessed as inhibition of p-benzoquinone-induced abdominal writhing at 100 mg/kg, sc administered 30 min prior to PBQ injection measured after 5 min for 15 min; assay type: functional, Abdomen; design: scale not given: the % may be the effect or the level left; details: route subcutaneous
[18] = test system: Raji; experiment: Anticancer activity against Homo sapiens (human) Raji cells assessed as cell viability at 50 uM after 24 hr by MTT assay (reference value: 100 +/-5.02%); assay type: functional; details: read-out: Activity
[19] = test system: MCF7; experiment: Anticancer activity against Homo sapiens (human) MCF7 cells assessed as cell viability at 50 uM after 48 hr by MTT assay (100 +/-5.08%); assay type: functional; details: MCF7, 48 h, read-out: Activity
[20] = test system: HL-60; experiment: Anticancer activity against Homo sapiens (human) HL60 cells assessed as cell viability at 50 uM after 48 hr by MTT assay (reference value: 100 +/-8.41%); assay type: functional; details: HL-60, 48 h, read-out: Activity
[21] = test system: Mus musculus; experiment: Anti-inflammatory activity in carrageenan-induced Mus musculus Swiss albino (mouse) paw edema model assessed as paw swelling at 100 mg/kg, sc administered 30 min prior to carrageenan injection measured after 270 min (rvb = 75.0 +/-3.0 x10'-2 mm); assay type: functional; details: route subcutaneous
[22] = test system: HeLa; experiment: Anticancer activity against Homo sapiens (human) HeLa cells assessed as cell viability at 50 uM after 48 hr by MTT assay (reference value: 100 +/-3.8%); assay type: functional; details: read-out: Activity
[23] = test system: HL-60; experiment: Anticancer activity against Homo sapiens (human) HL60 cells assessed as inhibition of cell viability by MTT assay; assay type: functional, cell-based
[24] = test system: Mus musculus; experiment: Anti-inflammatory activity in carrageenan-induced Mus musculus Swiss albino (mouse) paw edema model assessed as inhibition of paw edema at 10 mg/kg, sc administered 30 min prior to carrageenan injection measured after 270 min; assay type: functional; details: route subcutaneous
[25] = test system: Mus musculus; experiment: Anti-inflammatory activity in carrageenan-induced Mus musculus Swiss albino (mouse) paw edema model assessed as paw swelling at 10 mg/kg, sc administered 30 min prior to carrageenan injection measured after 180 min (reference value: 51.0 +/-3.0 x10'-2 mm); assay type: functional; details: route subcutaneous
[26] = test system: Mus musculus; experiment: Anti-inflammatory activity in carrageenan-induced Mus musculus Swiss albino (mouse) paw edema model assessed as paw swelling at 10 mg/kg, sc administered 30 min prior to carrageenan injection measured after 270 min (reference value: 75.0 +/-3.0 x10'-2 mm); assay type: functional; details: route subcutaneous
[27] = test system: Mus musculus; experiment: Anti-inflammatory activity in carrageenan-induced Mus musculus Swiss albino (mouse) paw edema model assessed as paw swelling at 10 mg/kg, sc administered 30 min prior to carrageenan injection measured after 360 min (reference value: 77.0 +/-3.0 x10'-2 mm); assay type: functional; details: route subcutaneous
[28] = test system: Mus musculus; experiment: Anti-inflammatory activity in carrageenan-induced Mus musculus Swiss albino (mouse) paw edema model assessed as paw swelling at 10 mg/kg, sc administered 30 min prior to carrageenan injection measured after 90 min (reference value: 38.0 +/-2.0 x10'-2 mm); assay type: functional; details: route subcutaneous
[29] = test system: Mus musculus; experiment: Anti-inflammatory activity in carrageenan-induced Mus musculus Swiss albino (mouse) paw edema model assessed as inhibition of paw edema at 10 mg/kg, sc administered 30 min prior to carrageenan injection measured after 360 min; assay type: functional; details: route subcutaneous
[30] = test system: Mus musculus; experiment: Anti-inflammatory activity in carrageenan-induced Mus musculus Swiss albino (mouse) paw edema model assessed as inhibition of paw edema at 10 mg/kg, sc administered 30 min prior to carrageenan injection measured after 180 min; assay type: functional; details: route subcutaneous
[31] = test system: Mus musculus; experiment: Anti-inflammatory activity in carrageenan-induced Mus musculus Swiss albino (mouse) paw edema model assessed as inhibition of paw edema at 10 mg/kg, sc administered 30 min prior to carrageenan injection measured after 90 min; assay type: functional; details: route subcutaneous

| Compound | viability at 50 µM [2] [%] | viability at 50 µM [3] [%] | inhibition in vivo at 100 mg/kg [4] [%] | Activity [5] | Activity [6] [×10⁻² mm] | viability at 50 µM [7] [%] | viability at 50 µM [8] [%] | Activity [9] [×10⁻² mm] | viability at 50 µM [10] [%] | inhibition in vivo at 100 mg/kg [11] [%] | Activity [12] [×10⁻² mm] | Activity [13] | inhibition in vivo at 100 mg/kg [14] [%] | viability at 50 µM [15] [%] | inhibition in vivo at 100 mg/kg [16] [%] | Activity [17] [%] | viability at 50 µM [18] [%] | viability at 50 µM [19] [%] | viability at 50 µM [20] [%] | Activity [21] [×10⁻² mm] | further results |
| --- | --- | --- | --- | --- | --- | --- | --- | --- | --- | --- | --- | --- | --- | --- | --- | --- | --- | --- | --- | --- | --- |
| Cc1ccc(-c2cc(C(=O)Oc3ccc(-n4ccnc4)cc3)n(Cc3ccccc3)n2)cc1 | 24.4 | 36.7 | 18.8 | Non-toxic | 35 | 67.6 | 33.1 | 43 | 108 | 6.6 | 62 | Non-toxic | 19.2 | 106 | 15.4 | 14.9 | 96.5 | 52.4 | 121 | 61.6 | IC50 [1]: 30.4 µM; viability at 50 µM [22]: 33.9% |
| Cc1ccc(-c2cc(C(=O)N3CCN(Cc4ccc(C(C)C)cc4)CC3)nn2Cc2ccccc2)cc1 | 41.1 | 52.5 | 63.4 | Non-toxic | 34 | 51.4 | 67.2 | 28 | 11.9 | 8.9 | 28 | Non-toxic | 58.9 | 29.6 | 46.3 | 59.2 | 44.4 | 56.7 | 15.5 | 31 | IC50 [1]: 30.5 µM; IC50 [23]: 24.4 µM; viability at 50 µM [22]: 34.5% |
| Cc1ccc(-c2cc(C(=O)Oc3ccc(C(C)(C)C)cc3)nn2Cc2ccccc2)cc1 | 70.5 | 118 | 58.7 | Non-toxic | 28 | 90.9 | 93.7 | 37 | 134 | 26 | 32 | Non-toxic | 54 | 95.3 | 28.5 | 73.4 | 111 | 92.4 | 69.7 | 34 | viability at 50 µM [22]: 62.1% |
| CCOC(=O)C1CCN(C(=O)c2cc(-c3ccc(C)cc3)nn2Cc2ccccc2)CC1 | 64 | 53.5 | 57.6 | Non-toxic | 28 | 54.2 | 96.5 | 34 | 102 | 26.7 | 33 | Non-toxic | 54.4 | 97.3 | 33.3 | 77 | 77 | 88.2 | 91.7 | 34 | viability at 50 µM [22]: 49.9% |
| COc1ccc2c(c1)c(CC(=O)O)c(C)n2C(=O)c1ccc(Cl)cc1 [INDOMETHACIN] | – | – | – | – | – | – | – | – | – | – | – | – | – | – | – | – | – | – | – | – | inhibition in vivo at 10 mg/kg [24]: 45.6%; Activity [25]: 35 ×10⁻² mm; Activity [26]: 41 ×10⁻² mm; Activity [27]: 42 ×10⁻² mm; Activity [28]: 32 ×10⁻² mm; inhibition in vivo at 10 mg/kg [29]: 45.7%; inhibition in vivo at 10 mg/kg [30]: 31.7%; inhibition in vivo at 10 mg/kg [31]: 15.5% |
